Data on 30 compounds can be found in patent US9777003B2, “Tricyclic heterocycles as bet protein inhibitors” (Incyte Corporation, priority 2013, dated 2017).

The target in one assay is BRD4-BD1 (Homo sapiens (Human), UniProt O60885). The assay can be described thus: BRD4 AlphaScreen assay, BRD4-BD1. The format is binding. Particulars: biotin-labeled tetra-acetylated histone H4 peptide, 75 min, room temperature, read-out: BRD4 BD-1 enzyme IC50. As for the experimental part: (§1) BRD4-BD1 and BRD4-BD2 assays were conducted in white 384-well polystyrene plate in a final volume of 20 μL for BD1 and 40 μL for BD2. Inhibitors were first serially diluted in DMSO and added to the plate wells before the addition of other reaction components. The final concentration of DMSO in the assay was 1.25% (BD1) and 0.83% (BD2). The assays were carried out at room temperature for 75 min. in the assay buffer (50 mM HEPES, pH 7.4, 100 mM NaCl, 0.05% CHAPS, 0.01% BSA), containing 50 nM Biotin-labeled tetra-acetylated histone H4 peptide (H4Ac4), 3.8 nM (BRD4-BD1, BPS Bioscience #31040) or 20 nM (BRD4-BD2, BPS Bioscience #31041). The reaction followed by the addition of 20 μL of assay buffer supplemented with Streptavidin donor beads (PerkinElmer 6760002) and GSH Acceptor beads (PerkinElmer-AL109C) at 4 μg/mL under reduced light. After plate sealing, the plate was incubated in the dark at room temperature for 75 min. before reading on a PHERAstar FS plate reader (BMG Labtech). IC50 determination was performed by fitting the curve of percent control activity versus the log of the inhibitor concentration using the GraphPad Prism 5.0 software.
(In Alpha technology, singlet oxygen from a donor bead excites a nearby acceptor bead.)

The target in a further assay is BRD4-BD2 (Homo sapiens (Human), UniProt O60885). Put plainly: BRD4 AlphaScreen assay, BRD4-BD2. The format is binding. Particulars: biotin-labeled tetra-acetylated histone H4 peptide, 75 min, room temperature, read-out: BRD4 BD-2 enzyme IC50. As for the experimental part:
as §1

Where a name gives a salt, the structure may show the parent alone.

With `CCNC(=O)Nc1cccc(Cn2c(C)cc3c2ccc2nnc(C)n23)c1` [Example 43, N-{3-[(1,7-dimethyl-6H-pyrrolo[2,3-e][1,2,4]triazolo[4,3-a]pyridin-6-yl)methyl]phenyl}-N′-ethylurea Trifluoroacetate Salt], the half-maximal inhibitory concentration (IC50) at BRD4-BD1 is 0.1 to 1 µM; at BRD4-BD2, at most 0.1 µM.

Turning to `Cc1cc2c(ccc3nnc(C)n32)n1Cc1cccc(NC(N)=O)c1` [Example 44, N-{3-[(1,7-dimethyl-6H-pyrrolo[2,3-e][1,2,4]triazolo[4,3-a]pyridin-6-yl)methyl]phenyl}urea], the values for the concentration for half-maximal inhibition (IC50) at BRD4-BD1 and at BRD4-BD2 were 0.1 to 1 µM and at most 0.1 µM, respectively.

With `Cc1cc2c(ccc3nnc(C)n32)n1Cc1cccc(CN2CCCC2)c1` [Example 45, 1,7-dimethyl-6-[3-(pyrrolidin-1-ylmethyl)benzyl]-6H-pyrrolo[2,3-e][1,2,4]triazolo[4,3-a]pyridine], the IC50 on BRD4-BD1 and at BRD4-BD2 was at most 0.1 µM throughout.

As to `Cc1cc2c(ccc3nnc(C)n32)n1Cc1cccc(CN2CCCCC2)c1` [Example 46, 1,7-dimethyl-6-[3-(piperidin-1-ylmethyl)benzyl]-6H-pyrrolo[2,3-e][1,2,4]triazolo[4,3-a]pyridine], the concentration for half-maximal inhibition (IC50) at BRD4-BD1 and on BRD4-BD2 was at most 0.1 µM each time.

In the case of `Cc1cc2c(ccc3nnc(C)n32)n1Cc1cccc(CN2CCN(C)CC2)c1` [Example 47, 1,7-dimethyl-6-{3-[(4-methylpiperazin-1-yl)methyl]benzyl}-6H-pyrrolo[2,3-e][1,2,4]triazolo[4,3-a]pyridine], the IC50 on BRD4-BD1 was 0.1 to 1 µM; at BRD4-BD2, at most 0.1 µM.

As to `Cc1cc2c(ccc3nnc(C)n32)n1Cc1cccc(CN2CCNCC2)c1` [Example 48, 1,7-dimethyl-6-[3-(piperazin-1-ylmethyl)benzyl]-6H-pyrrolo[2,3-e][1,2,4]triazolo[4,3-a]pyridine], the half-maximal inhibitory concentration (IC50) at BRD4-BD1 is 0.1 to 1 µM; on BRD4-BD2, at most 0.1 µM.

Regarding `Cc1cc2c(ccc3nnc(C)n32)n1Cc1ccc(CO)cc1` [Example 49, {4-[(1,7-dimethyl-6H-pyrrolo[2,3-e][1,2,4]triazolo[4,3-a]pyridin-6-yl)methyl]phenyl}methanol], the IC50 was 0.1 to 1 µM at BRD4-BD1 and at most 0.1 µM at BRD4-BD2.

Consider `Cc1cc2c(ccc3nnc(C)n32)n1Cc1ccc(CN2CCC2)cc1` [Example 50, 6-[4-(azetidin-1-ylmethyl)benzyl]-1,7-dimethyl-6H-pyrrolo[2,3-e][1,2,4]triazolo[4,3-a]pyridine], for which the IC50 on BRD4-BD1 and at BRD4-BD2 was at most 0.1 µM throughout.

Take `Cc1cc2c(ccc3nnc(C)n32)n1Cc1ccc(CN2CCCC2)cc1` [Example 51, 1,7-dimethyl-6-[4-(pyrrolidin-1-ylmethyl)benzyl]-6H-pyrrolo[2,3-e][1,2,4]triazolo[4,3-a]pyridine]: the half-inhibitory concentration (IC50) on BRD4-BD1 and on BRD4-BD2 was 0.1 to 1 µM in each case.

As for `Cc1cc2c(ccc3nnc(C)n32)n1Cc1ccc(CN2CC(O)C2)cc1` [Example 52, 1-{4-[(1,7-dimethyl-6H-pyrrolo[2,3-e][1,2,4]triazolo[4,3-a]pyridin-6-yl)methyl]benzyl}azetidin-3-ol], the IC50 on BRD4-BD1 and at BRD4-BD2 was 0.1 to 1 µM in each case.

Consider `Cc1cc2c(ccc3nnc(C)n32)n1Cc1ccc(CN(C)C)cc1` [Example 53, 1-{4-[(1,7-dimethyl-6H-pyrrolo[2,3-e][1,2,4]triazolo[4,3-a]pyridin-6-yl)methyl]phenyl}-N,N-dimethylmethanamine], for which the 50% inhibitory concentration (IC50) at BRD4-BD1 and at BRD4-BD2 was 0.1 to 1 µM throughout.

`COC1CN(Cc2cccc(Cn3c(C)cc4c3ccc3nnc(C)n34)c2)C1` [Example 54, 6-{3-[(3-methoxyazetidin-1-yl)methyl]benzyl}-1,7-dimethyl-6H-pyrrolo[2,3-e][1,2,4]triazolo[4,3-a]pyridine]: the IC50 at BRD4-BD1 was 0.1 to 1 µM; at BRD4-BD2, at most 0.1 µM.

As for `Cc1nc2c(ccc3nnc(C)n32)n1Cc1ccccc1` [Example 55, 3-benzyl-2,8-dimethyl-3H-imidazo[4,5-e][1,2,4]triazolo[4,3-a]pyridine], the figures for the IC50 on BRD4-BD1 and at BRD4-BD2 were 0.1 to 1 µM and at most 0.1 µM, respectively.

With `Cc1nnc2ccc3c(cc(CO)n3Cc3ccccc3)n12` [Example 56, (6-benzyl-1-methyl-6H-pyrrolo[2,3-e][1,2,4]triazolo[4,3-a]pyridin-7-yl)methanol], the IC50 on BRD4-BD1 is 0.1 to 1 µM; at BRD4-BD2 it was at most 0.1 µM.

Turning to `Cc1nnc2ccc3c(cc(Cn4ccnc4)n3Cc3ccccc3)n12` [Example 57, 6-benzyl-7-(1H-imidazol-1-ylmethyl)-1-methyl-6H-pyrrolo[2,3-e][1,2,4]triazolo[4,3-a]pyridine], the concentration for half-maximal inhibition (IC50) at BRD4-BD1 is 1 to 10 µM; on BRD4-BD2, 0.1 to 1 µM.

As for `Cc1nnc2ccc3c(cc(C(N)=O)n3Cc3ccccc3)n12` [Example 58, 6-benzyl-1-methyl-6H-pyrrolo[2,3-e][1,2,4]triazolo[4,3-a]pyridine-7-carboxamide], the concentration for half-maximal inhibition (IC50) at BRD4-BD1 and at BRD4-BD2 was at most 0.1 µM in each case.

For the compound `CCNC(=O)c1cc2c(ccc3nnc(C)n32)n1Cc1ccccc1` [Example 59, 6-benzyl-N-ethyl-1-methyl-6H-pyrrolo[2,3-e][1,2,4]triazolo[4,3-a]pyridine-7-carboxamide], the IC50 at BRD4-BD1 and on BRD4-BD2 was at most 0.1 µM throughout.

Regarding `Cc1nnc2ccc3c(cc(C(=O)N4CC(C#N)C4)n3Cc3ccccc3)n12` [Example 60, 1-[(6-benzyl-1-methyl-6H-pyrrolo[2,3-e][1,2,4]triazolo[4,3-a]pyridin-7-yl)carbonyl]azetidine-3-carbonitrile], the IC50 at BRD4-BD1 was 0.1 to 1 µM; at BRD4-BD2, at most 0.1 µM.

For the compound `Cc1nnc2ccc3c(cc(CCO)n3Cc3ccccc3)n12` [Example 61, 2-(6-benzyl-1-methyl-6H-pyrrolo[2,3-e][1,2,4]triazolo[4,3-a]pyridin-7-yl)ethanol], the IC50 at BRD4-BD1 fell in the range of 1 to 10 µM; at BRD4-BD2 it was 0.1 to 1 µM.

As to `Cc1nnc2ccc3c(cc(-c4ccn[nH]4)n3Cc3ccccc3)n12` [Example 62, 6-benzyl-1-methyl-7-(1H-pyrazol-5-yl)-6H-pyrrolo[2,3-e][1,2,4]triazolo[4,3-a]pyridine], the IC50 on BRD4-BD1 and at BRD4-BD2 was at most 0.1 µM each time.

`Cc1nnc2ccc3c(cc(-c4cn[nH]c4)n3Cc3ccccc3)n12` [Example 63, 6-benzyl-1-methyl-7-(1H-pyrazol-4-yl)-6H-pyrrolo[2,3-e][1,2,4]triazolo[4,3-a]pyridine]: the IC50 at BRD4-BD1 and at BRD4-BD2 was at most 0.1 µM throughout.

In the case of `Cc1nnc2ccc3c(cc(-c4cnn(CC#N)c4)n3Cc3ccccc3)n12` [Example 64, [4-(6-benzyl-1-methyl-6H-pyrrolo[2,3-e][1,2,4]triazolo[4,3-a]pyridin-7-yl)-1H-pyrazol-1-yl]acetonitrile], the IC50 on BRD4-BD1 and on BRD4-BD2 was at most 0.1 µM each time.

Take `Cc1nnc2ccc3c(cc(-c4ccn(CC#N)n4)n3Cc3ccccc3)n12` [Example 65, [3-(6-benzyl-1-methyl-6H-pyrrolo[2,3-e][1,2,4]triazolo[4,3-a]pyridin-7-yl)-1H-pyrazol-1-yl]acetonitrile]: the 50% inhibitory concentration (IC50) on BRD4-BD1 and at BRD4-BD2 was at most 0.1 µM throughout.

As for `Cc1nnc2ccc3c(cc(-c4cscn4)n3Cc3ccccc3)n12` [Example 66, 6-benzyl-1-methyl-7-(1,3-thiazol-4-yl)-6H-pyrrolo[2,3-e][1,2,4]triazolo[4,3-a]pyridine], the IC50 on BRD4-BD1 and at BRD4-BD2 was at most 0.1 µM in each case.

As for `Cc1nnc2ccc3c(cc(-c4nccs4)n3Cc3ccccc3)n12` [Example 67, 6-benzyl-1-methyl-7-(1,3-thiazol-2-yl)-6H-pyrrolo[2,3-e][1,2,4]triazolo[4,3-a]pyridine], the half-maximal inhibitory concentration (IC50) at BRD4-BD1 and at BRD4-BD2 was at most 0.1 µM throughout.

For the compound `Cc1nnc2ccc3c(cc(-c4ccccn4)n3Cc3ccccc3)n12` [Example 68, 6-benzyl-1-methyl-7-pyridin-2-yl-6H-pyrrolo[2,3-e][1,2,4]triazolo[4,3-a]pyridine], the figures for the half-inhibitory concentration (IC50) at BRD4-BD1 and at BRD4-BD2 were 0.1 to 1 µM and at most 0.1 µM, respectively.

Turning to `Cc1nnc2ccc3c(cc(-c4cncs4)n3Cc3ccccc3)n12` [Example 69, 6-benzyl-1-methyl-7-(1,3-thiazol-5-yl)-6H-pyrrolo[2,3-e][1,2,4]triazolo[4,3-a]pyridine], the half-inhibitory concentration (IC50) at BRD4-BD1 is 0.1 to 1 µM; at BRD4-BD2, at most 0.1 µM.

`Cc1nnc2ccc3c(cc(-c4cn(C)cn4)n3Cc3ccccc3)n12` [Example 70, 6-benzyl-1-methyl-7-(1-methyl-1H-imidazol-4-yl)-6H-pyrrolo[2,3-e][1,2,4]triazolo[4,3-a]pyridine]: the IC50 on BRD4-BD1 and at BRD4-BD2 was at most 0.1 µM each time.

For the compound `Cc1nnc2ccc3c(cc(-c4cncn4C)n3Cc3ccccc3)n12` [Example 71, 6-benzyl-1-methyl-7-(1-methyl-1H-imidazol-5-yl)-6H-pyrrolo[2,3-e][1,2,4]triazolo[4,3-a]pyridine], the concentration for half-maximal inhibition (IC50) at BRD4-BD1 fell in the range of 0.1 to 1 µM; at BRD4-BD2, 1 to 10 µM.

Regarding `Cc1nnc2ccc3c(cc(-c4ccsc4)n3Cc3ccccc3)n12` [Example 72, 6-benzyl-1-methyl-7-(3-thienyl)-6H-pyrrolo[2,3-e][1,2,4]triazolo[4,3-a]pyridine], the concentration for half-maximal inhibition (IC50) at BRD4-BD1 and on BRD4-BD2 was at most 0.1 µM each time.

By IC50 is commonly meant the concentration that gives 50% inhibition.
